Assay results reported in patent publication US10596185B2, “Flavonoid compositions and uses thereof” (INGREDIENTS BY NATURE, priority 2014, dated 2020).
Converted amounts (≈) assume the structure as drawn. Like-named read-outs stand apart in the source and are kept apart here. Marks after values point to notes of the source that are not given here.

Experiments:
[1] = test system: MCP-1; test: MCP-1 level in mice fed a high-fat diet; assay type: in vivo; conditions: for MCP-1: high fat diet mice, mean ± standard deviation
Experimental: (§1) The effects of eriocitrin and eriodictyol on anti-inflammatory markers were determined in mice fed a high-fat diet and compared to negative control, untreated mice that were fed either a standard- or high-fat-diet. Eriocitrin and eriodictyol effects were also compared against ibuprofen- and hesperidin-treated, high-fat-diet-fed mice. The effects of these various treatments on the cytokines IL-6, IL-10, MCP-1, and TNF-alpha are shown below.

[2] = test system: TNF-alpha; test: TNF-alpha level in mice fed a high-fat diet; assay type: in vivo; conditions: mean ± standard deviation
Experimental: as §1

[3] = test system: IL-6; test: IL-6 level in mice fed a high-fat diet; assay type: in vivo; conditions: for IL-6: high fat diet mice, mean ± standard deviation
Experimental: as §1

[4] = test system: IL-10; test: IL-10 level in mice fed a high-fat diet; assay type: in vivo; conditions: mean ± standard deviation
Experimental: as §1

[5] = test system: NF-kB; test: NF-kB-luciferase assay system in C2C12 cell line; assay type: cell-based; conditions: for Compare quercetin (EC50 NF-kB): NF-kB inhibitory activity relative to quercetin
Experimental: Activity of the complex was measured using a C2C12 cell line with a NF-kB-luciferase assay system (Affymetrix, Santa Clara, Calif.), and compared to a number of flavonoid controls.

[6] = Total ORACFN (sum over the five reactive species); assay type: biochemical; parameters: ORAC-FN: unit not given here; conditions: for ORAC-FN: Table 5 summary, total ORACFN, unit not given; for Compare quercetin (ORAC-FN): anti-oxidant activity relative to quercetin
Experimental: This example describes the anti-oxidant activity of the eriodictyol complex described in Table 1. Anti-oxidant activity was measured using an oxygen radical absorbance capacity assay for food and nutrition ([…]). The assay was performed using techniques known in the art, such as those disclosed in Ou, B. et al., J Agric and Food Chem, 2001, 49 (10): 4619-4626; Huang, D. et al., J Agric and Food Chem, 2002, 50 (7): 1815-1821; Ou, B. et al., J Agric and Food Chem, 2002, 50 (10): 2772-2777; Zhang, L. et al., Free Radic. Bio Med, 2007, 43 (suppl. 1): S17; Dubost, N.J. et al., Food Chem, 2007, 105 (2): 727-735; Zhang, L. et al., J Agric and Food Chem, 2009, 57(7): 2661-2667; and U.S. Pat. No. 7,132,296, the contents of all of which are incorporated herein by reference. The activity of the eriodictyol complex against peroxyl radicals, hydroxyl radicals, peroxynitrite, super oxide anion, and singlet oxygen was measured. The total […] was also measured.

[7] = Clinical study of metabolic syndrome symptoms (fasting glucose, insulin, hs-CRP, lipid panel); assay type: in vivo; conditions: humans, after 30 days, ≥10 hour fast, versus placebo
Experimental: A clinical study is performed in which subjects undergo a one-week run-in period during which subject document baseline data. Subjects meeting the inclusion/exclusion criteria are enrolled in the study and sent a glucometer to determine their fasting blood glucose levels. Those meeting the study criteria are enrolled in the study.
The subjects fast for at least 10 hours, and their fasting glucose, fasting insulin, hs-CRP levels, and lipid panels (including LDL, HDL, and triglycerides) are measured. Following these baseline measurements, subjects consume (1) 50 mg-2 g/day eriocitrin; (2) 50 mg-2 g/day eriocitrin, 50-250 mg/day neoeriocitrin, 50-250 mg/day hesperidin; or (3) a placebo. After 30 days, the subjects' glucose, insulin, hs-CRP, and lipid panel measurements are taken after a ≥10 hour fast.

[8] = Mus musculus, C2C12, Table 5 summary, unit inferred, read-out: EC50 NF-kB
[9] = Mus musculus, NF-kB inhibition, C2C12 cell line, NF-kB-luciferase, read-out: EC50
[10] = high-fat-diet-fed mice, in words

| SMILES | MCP-1 [1] | TNF-alpha [2] | IL-6 [3] | IL-10 [4] | Compare quercetin (EC50 NF-kB) [5] | ORAC-FN [6] | Compare quercetin (ORAC-FN) [6] | EC50 [5, 8] | EC50 [5, 9] | further results |
| --- | --- | --- | --- | --- | --- | --- | --- | --- | --- | --- |
| CC(C)Cc1ccc(C(C)C(=O)O)cc1 (stereo not drawn) [Ibuprofen] | 43.4 ± 31.5^ab | 1.2 ± 2.4 | 21.9 ± 18.1^a | 6.0 ± 4.5 | – | – | – | – | – | – |
| COc1ccc([C@@H]2CC(=O)c3c(O)cc(O[C@@H]4O[C@H](CO[C@@H]5O[C@@H](C)[C@H](O)[C@@H](O)[C@H]5O)[C@@H](O)[C@H](O)[C@H]4O)cc3O2)cc1O [Hesperidin 90, Hesperidin] | – | – | – | – | 0.09 | 6067 | 0.092 | – | – | EC50 ([5]; NF-kB inhibition, C2C12 cell line, NF-kB-luciferase): 275.70 µg/mL (≈ 452 µM); EC50 NF-kB ([5]; Table 5 summary, unit not given, in µg/mL): 275.70 |
| C[C@@H]1O[C@@H](O[C@H]2[C@H](Oc3cc(O)c4c(c3)O[C@H](c3ccc(O)cc3)CC4=O)O[C@H](CO)[C@@H](O)[C@@H]2O)[C@H](O)[C@H](O)[C@H]1O [Naringin] | – | – | – | – | 0.07 | 22389 | 0.339 | 381 µg/mL (≈ 656 µM) | 381 µg/mL (≈ 656 µM) | – |
| COc1ccc(-c2cc(=O)c3c(O)cc(O[C@@H]4O[C@H](CO[C@@H]5O[C@@H](C)[C@H](O)[C@@H](O)[C@H]5O)[C@@H](O)[C@H](O)[C@H]4O)cc3o2)cc1O [Diosmin] | – | – | – | – | 0.07 | 373 | 0.006 | 349 µg/mL (≈ 573 µM) | 349 µg/mL (≈ 573 µM) | – |
| O=C1C[C@@H](c2ccc(O)cc2)Oc2cc(O)cc(O)c21 [Naringenin] | – | – | – | – | 0.78 | 59454 | 0.901 | 32 µg/mL (≈ 118 µM) | 32 µg/mL (≈ 118 µM) | – |
| COc1ccc([C@@H]2CC(=O)c3c(O)cc(O[C@@H]4O[C@H](CO[C@@H]5O[C@@H](C)[C@H](O)[C@@H](O)[C@H]5O)[C@@H](O)[C@H](O)[C@H]4O)cc3O2)cc1O [Hesperidin] | 27.6 ± 9.0^a | 2.7 ± 0.3 | 5.9 ± 4.6^a | 5.3 ± 2.4 | – | – | – | – | – | – |
| COc1ccc([C@@H]2CC(=O)c3c(O)cc(O)cc3O2)cc1O [Hesperitin 95, Hesperitin] | – | – | – | – | 0.46 | 77875 | 1.180 | 54.2 µg/mL (≈ 179 µM) | 54.2 µg/mL (≈ 179 µM) | – |
| O=c1c(O)c(-c2ccc(O)c(O)c2)oc2cc(O)cc(O)c12 [Quercetin•2H2O] | – | – | – | – | – | – | – | – | 31.5 µg/mL (≈ 104 µM) | – |
| C[C@@H]1O[C@@H](OC[C@H]2O[C@@H](Oc3cc(O)c4c(c3)O[C@H](c3ccc(O)c(O)c3)CC4=O)[C@H](O)[C@@H](O)[C@@H]2O)[C@H](O)[C@H](O)[C@H]1O [Eriocitrin, eriodictyol 7-O-B-rutinoside] | 19.3 ± 11.1^a | 2.4 ± 0.6 | 3.1 ± 1.6^a | 4.0 ± 2.2 | 0.35 | 31355 | 0.475 | 71.4 µg/mL (≈ 120 µM) | 71.4 µg/mL (≈ 120 µM) | MCP-1 levels in comparison to the negative controls [1, 10]: significantly reduced; HDL levels [7]: increased; LDL levels [7]: reduced; glucose levels [7]: reduced; hs-CRP levels [7]: reduced; insulin levels [7]: reduced; total cholesterol levels [7]: reduced; IL-6 levels in comparison to the negative controls [3, 10]: significantly reduced |
